# Counter-ions that a name gives are not always drawn.
# Assays:
# [1] = system: hypoxic pulmonary hypertension model rats; assay: Hypoxic pulmonary hypertension model rats, oral (gavage) treatment for 28 days; format: in vivo, SD rats; conditions: hypoxic PAH rats; for 2 × MT/ED / RVHI / RVSP / mPAP: po
# Protocol: An animal model of pulmonary hypertension in SD rats was established in a hypoxic and low-pressure environment, and compound 1 was administered by gavage at the same time for treatment. The rat pulmonary artery hemodynamics and right heart hypertrophy index RVHI were measured to determine whether compound 1 has effects of improving hypoxic pulmonary hypertension.
# (§1) SD rats (purchased from Shanghai Xipuer-Bikai Experimental Animal Co., Ltd.), male, weighing 180-200 g, were bred in an artificially controlled animal room with each 12 hours of light and darkness at a temperature of 20-25° C. and relative humidity of 50-60%, and allowed ad libitum to food and water. The rats were randomly divided into groups according to the experimental requirements, and kept separately in cages, with 3 to 4 rats per cage. All relevant operations of animal experiments are in compliance with the provisions of “Guidelines for the Management and Use of Laboratory Animals” of China.
# The hypoxic PAH model was established by placing SD male rats in a fully-automatically regulated low-pressure hypoxic chamber (atmospheric pressure of about 50 kPa, oxygen concentration of 10%) for 8 hours a day for 28 days. The rats in the blank control group were kept in a normoxic environment.
# The experimental rats of hypoxic PAH model were divided into 8 groups, namely blank control group, model group, Sidenafil (25 mg/kg) group, compound 1 (10 mg/kg) group, compound 1 (25 mg/kg) group, compound 1 (50 mg/kg) group, compound 1 (100 mg/kg) group, and compound 1 (200 mg/kg) group. The concentration in the parentheses of the group name represents the administration concentration of the compound or drug. In hypoxia-induced PAH experiments, Sidenafil is often used as a positive drug, which can reduce the pulmonary artery pressure in rats and reduce the right ventricular hypertrophy and vascular remodeling. In this experiment, 25 mg/kg of Sidenafil was used as the positive drug. Both the positive drugs Sidenafil and Compound 1 were dissolved in physiological saline and formulated into solutions of different concentrations according to different administration concentrations. The rats were continuously administered for 28 days with an administration volume of 5 ml/kg. Rats in the control and model groups were given the corresponding volume of physiological saline solution via gavage. The specific grouping can be found in Table 5.
# After the administration was completed, the POWERLAB biological information acquisition and treatment system was started, and the right cardiac catheter filled with 0.2% heparin sodium (Beijing Solo Technology Co. Ltd.) in normal saline was connected to the pressure transducer and then zero-calibrationed for use. After 20% urethane (Shanghai Yuanye Biotechnology Co., Ltd.) solution was injected into the abdominal cavity of the rats for anesthesia, the right neck hair was shaved and the right jugular vein was isolated and exposed. […] After the typical right ventricular waveform appeared and stabilized for a while, the waveform was recorded, and then the pressure value was read by Powerlab biological information acquisition and processing system (ADInstruments).
# After the pressure was measured, the catheter was taken out, and the rat was dissected immediately to take out the heart and lung tissues. The right ventricle (RV) and the left ventricle and interventricular septum (LV+S) were separated and weighed, and the right heart hypertrophy index RVHI=RV/(LV+S) was calculated. The lung lobe tissue from the right lower part of the lung was separated, soaked in 4% paraformaldehyde (Sigma) for about 1 week to prepare a paraffin section with a thickness of 3 μm, and then conducted to hematoxylin-eosin staining (Wuhan Guge Biotechnology Co., Ltd.). […]
# [2] = system: monocrotaline-induced pulmonary hypertension model rats (MCT-PAH); assay: Monocrotaline-induced pulmonary hypertension model rats, oral (gavage) treatment for 21 days; format: in vivo, SD rats
# Description: Monocrotaline (MCT) was subcutaneously injected to establish an animal model of pulmonary hypertension in SD rats. At the same time, compound 1 was given by gavage for treatment. The pulmonary artery hemodynamics and right heart hypertrophy index RVHI of the rates were detected to determine whether the oral administration of compound 1 has effects of improving Monocrotaline induces pulmonary hypertension.
# as §1
# During the experiment, SD rats were randomly divided into 4 groups: blank control group, pulmonary hypertension model group, Selexipag (1 mg/kg) treatment group and compound 1 (100 mg/kg) group with 6 rats in each group, and the concentration in brackets represents the administration concentration of the compound, in which Selexipag is a new oral long-acting prostacyclin receptor agonist discovered and synthesized by Japan New Drug Co., Ltd. On the first day of the experiment, normal saline was injected subcutaneously into the back of neck of rats in the blank control group, and monocrotaline (Chengdu Purifa Biotechnology Co., Ltd.) solution was injected in the rats in other groups at a dosage of 60 mg/kg. Both the positive drug, Selexipag and Compound 1 were administered by gavage. Selexipag and […] were dissolved in 0.5% CMC-Na solution. The rats were continuously administered for 21 days with a volume of […]. The rats in the control and model groups were given the corresponding volume of CMC-Na solution by gavage. Specific groupings can be found in Table 7.
# After the administration, the pulmonary vascular hemodynamics and RVHI was determined according to the same experiment method as that in Example 1.
# [3] = system: spontaneously hypertensive rats (SHR); assay: Antihypertensive activity test: blood pressure and heart rate of spontaneously hypertensive rats (SHR); format: in vivo, rat; conditions: 200 mg/kg
# How it was run: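 Spontaneously hypertensive rats received compound at 200 mg/kg. SBP and heart rate were measured before and after dosing. A drop in SBP of ≥20 mmHg from baseline counted as effective, and heart-rate changes were tested by paired t-test (P<0.05).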
# [4] = system: monocrotaline-induced pulmonary hypertension model rats (MCT-PAH); assay: Monocrotaline-induced pulmonary hypertension model rats, aerosol inhalation treatment; format: in vivo, SD rats; conditions: 30 mg/kg, inh, 28 days
# Protocol: A pulmonary hypertension animal model of SD rats was established by subcutaneous injection of monocrotaline (MCT). The compound 1 was administered by aerosol inhalation for treatment. The pulmonary artery hemodynamics and right heart hypertrophy index RVHI of rats were tested to determine whether compound 1 administered by aerosol inhalation has effects of improving monocrotaline-induced pulmonary hypertension.
# as §1
# In the second experiment, the rats were divided into 5 groups, namely the control group, model group, positive control Tyvaso (1.62 μg/kg) group, compound 1 (10 mg/kg) group and compound 1 (30 mg/kg) group. On the first day of the experiment, normal saline was injected subcutaneously into the back of the neck of the rats in the blank control group, and monocrotaline (Chengdu Purifa Biotechnology Co., Ltd.) solution was injected in the other groups at a dosage of 60 mg/kg. Compound 1 and Tyvaso were administered by aerosol inhalation, that is, the compound was firstly dissolved in physiological saline, and then the solution was prepared into an aerosol with a nebulizer to be inhaled into the mouth and nose of rats. The rats in the control group and the model group only inhaled an aerosol made of physiological saline. The rats were continuously administered for 28 days, and the concentration in the parentheses of the group name represents the administered concentration of the compound. Specific groupings can be found in Table 9. After the administration, the pulmonary vascular hemodynamics and RVHI were determined in the same way as the experiment method in Example 1.
# [5] = after administration (6 h M ± SD), n = 8
# [6] = before administration, M ± SD, n = 8
smiles,measurement,setting,value
CCc1ccccc1C(O)CO (stereo not drawn) [Compound 5],2 × MT/ED,[1]; 200 mg/kg,0.270 ± 0.012
same,RVHI,[1]; 200 mg/kg,0.271 ± 0.038
same,RVSP,[1]; 200 mg/kg,60.29 ± 3.87 mmHg
same,mPAP,[1]; 200 mg/kg,15.76 ± 2.71 mmHg
same,2 × MT/ED,[2]; 100 mg/kg,0.29 ± 0.054
same,RVHI,[2]; 100 mg/kg,0.35 ± 0.048
same,RVSP,[2]; 100 mg/kg,44.32 ± 2.12 mmHg
same,mPAP,[2]; 100 mg/kg,15.76 ± 2.71 mmHg
same,"SBP Difference before and after administration, 1 h",[3]; 1 h,20 mmHg
same,"SHR blood pressure (SBP), time after administration 1 h","[3]; 1 h, n = 8",169 ± 6.32 mmHg
same,"SBP Difference before and after administration, 2 h",[3]; 2 h,15 mmHg
same,"SHR blood pressure (SBP), time after administration 2 h","[3]; 2 h, n = 8",174 ± 4.56 mmHg
same,"SBP Difference before and after administration, 3 h",[3]; 3 h,18 mmHg
same,"SHR blood pressure (SBP), time after administration 3 h","[3]; 3 h, n = 8",171 ± 9.34 mmHg
same,"SBP Difference before and after administration, 4 h",[3]; 4 h,16 mmHg
same,"SHR blood pressure (SBP), time after administration 4 h","[3]; 4 h, n = 8",173 ± 13.66 mmHg
same,"SBP Difference before and after administration, 5 h",[3]; 5 h,15 mmHg
same,"SHR blood pressure (SBP), time after administration 5 h","[3]; 5 h, n = 8",174 ± 15.9 mmHg
same,"SBP Difference before and after administration, 6 h",[3]; 6 h,11 mmHg
same,"SHR blood pressure (SBP), time after administration 6 h","[3]; 6 h, n = 8",178 ± 8.48 mmHg
same,2 × MT/ED,[4],0.390 ± 0.038
same,RVHI,[4],0.324 ± 0.053
same,RVSP,[4],40.18 ± 4.62 mmHg
same,mPAP,[4],11.06 ± 2.95 mmHg
"COCCc1ccc(OCC(O)CNC(C)C)cc1 (stereo not drawn) [Metoprolol Hydrochloride, reference compound]",effect on heart rate while lowering blood pressure,[3],significantly slow down the heart rate
same,time after administration of lowest value of blood pressure,[3],3 h
same,"SHR heart rate, time after administration 0 h","[3]; 0 h, N = 8",328 ± 24.5 beat/min
same,"Heart rate Difference before and after administration, 1 h",[3]; 1 h,−44 beat/min
same,"SBP Difference before and after administration, 1 h",[3]; 1 h,20 mmHg
same,"SHR heart rate, time after administration 1 h","[3]; 1 h, N = 8",283 ± 24.4 beat/min
same,"SHR blood pressure (SBP), time after administration 1 h","[3]; 1 h, n = 8",166 ± 6.39 mmHg
same,"Heart rate Difference before and after administration, 2 h",[3]; 2 h,−45 beat/min
same,"SBP Difference before and after administration, 2 h",[3]; 2 h,22 mmHg
same,"SHR heart rate, time after administration 2 h","[3]; 2 h, N = 8",283 ± 23.1 beat/min
same,"SHR blood pressure (SBP), time after administration 2 h","[3]; 2 h, n = 8",164 ± 4.50 mmHg
same,"Heart rate Difference before and after administration, 3 h",[3]; 3 h,−49 beat/min
same,"SBP Difference before and after administration, 3 h",[3]; 3 h,25 mmHg
same,"SHR heart rate, time after administration 3 h","[3]; 3 h, N = 8",279 ± 22.3 beat/min
same,"SHR blood pressure (SBP), time after administration 3 h","[3]; 3 h, n = 8",161 ± 9.15 mmHg
same,"Heart rate Difference before and after administration, 4 h",[3]; 4 h,−48 beat/min
same,"SBP Difference before and after administration, 4 h",[3]; 4 h,24 mmHg
same,"SHR heart rate, time after administration 4 h","[3]; 4 h, N = 8",280 ± 23.0 beat/min
same,"SHR blood pressure (SBP), time after administration 4 h","[3]; 4 h, n = 8",163 ± 13.7 mmHg
same,"Heart rate Difference before and after administration, 5 h",[3]; 5 h,−43 beat/min
same,"SBP Difference before and after administration, 5 h",[3]; 5 h,23 mmHg
same,"SHR heart rate, time after administration 5 h","[3]; 5 h, N = 8",285 ± 24.0 beat/min
same,"SHR blood pressure (SBP), time after administration 5 h","[3]; 5 h, n = 8",164 ± 15.9 mmHg
same,"Heart rate Difference before and after administration, 6 h",[3]; 6 h,−40 beat/min
same,"SBP Difference before and after administration, 6 h",[3]; 6 h,18 mmHg
same,"SHR heart rate, time after administration 6 h","[3]; 6 h, N = 8",288 ± 28.5 beat/min
same,"SHR blood pressure (SBP), time after administration 6 h","[3]; 6 h, n = 8",168 ± 8.78 mmHg
same,average heart rate slowed by,[3]; 6 hours after administration,46 beats/min
same,"Blood pressure (SBP, mmHg) After administration",[3]; [5],164 ± 7.85 mmHg
same,Heart rate (beat/min) After administration,[3]; [5],282 ± 21.3 beat/min
same,Heart rate Difference (beat/min),[3]; after administration minus baseline (6 h),−46 beat/min
same,blood pressure reduction after administration,[3]; at most recorded time points,more than 20 mmHg
same,Blood pressure Difference mmHg,[3]; baseline minus after administration (6 h),23 mmHg
same,"Blood pressure (SBP, mmHg) Baseline",[3]; [6],186 ± 7.87 mmHg
same,Heart rate (beat/min) Baseline,[3]; [6],328 ± 24.5 beat/min
"CCCc1nn(C)c2c(=O)[nH]c(-c3cc(S(=O)(=O)N4CCN(C)CC4)ccc3OCC)nc12 [Sildenafil, reference compound]","value of RV/(LV+S), remodeling of the right ventricle","[1]; 25 mg/kg, gavage",effectively reduce
same,2 × MT/ED,[1]; 25 mg/kg,0.238 ± 0.018
same,RVHI,[1]; 25 mg/kg,0.240 ± 0.028
same,RVSP,[1]; 25 mg/kg,50.12 ± 2.96 mmHg
same,mPAP,[1]; 25 mg/kg,14.34 ± 2.48 mmHg
"CC(C)N(CCCCOCC(=O)NS(C)(=O)=O)c1cnc(-c2ccccc2)c(-c2ccccc2)n1 [selexipag, reference compound]",pulmonary arteriole hypertrophy vs. Model,[2]; 1 mg/kg,significantly reduced
same,2 × MT/ED,"[2]; 1 mg/kg, twice a day",0.30 ± 0.086
same,RVHI,"[2]; 1 mg/kg, twice a day",0.27±0.026
same,RVSP,"[2]; 1 mg/kg, twice a day",35.67 ± 2.89 mmHg
same,mPAP,"[2]; 1 mg/kg, twice a day",8.78 ± 1.98 mmHg

# — patent publication US12180146B2, “Antihypertensive polyol compound and derivative thereof” (TAO PHARMACEUTICAL (SUZHOU) CO., LTD, priority 2020, dated 2024)
